Assay [1] concerns the target T1, urease of P. mirabilis HI4320 cell free extracts (Proteus mirabilis, UniProt P17086).
T1 construct: 20ul of cell-free extract were distributed into a 96-well plate in place of the whole cell bacterial suspensions; endogenous in cells; host or cells: Proteus mirabilis HI4320, urea-induced; freeze-thaw and sonication lysate, clarified supernatant
The assay is classed as biochemical. The method, then: To measure urease activity of the cell free extracts of P. mirabilis, P. mirabilis was cultured for ~18 h in LB broth and then sub cultured until it reached mid-log growth phase (OD600 0.2-0.5). Cultures were spun down to pellet at 10,000 rcf for 10 minutes and resuspended in saline to a final OD600 of 1.0. Cultures were then diluted 1:10 in potassium phosphate buffer pH7 supplemented with 500 mM urea and incubated at 37 °C with shaking for 1 h to induce its urease enzyme production. The isogenic urease mutant Pm ureF::kan (Supplementary Data 1) served as negative control. Cultures then were spun down to pellet at 10,000 rcf for 10 minutes and resuspended in 2 mL saline. Cultures were subjected to four cycles of freezing in liquid nitrogen and thawing in a 37 °C water bath. Cultures were then probe sonicated (on ice) at 25% amplitude for 10 sec. Sonicated cultures were centrifuged at 18,900 Xg for 5 min and supernatants were transferred to a clean tube and stored on ice. To measure urease activity of cell free extracts, the previously described assay was modified such that 20ul of cell-free extract were distributed into a 96-well plate in place of the whole cell bacterial suspensions. Acetohydroxamic acid (AHA), was used as a positive control. Percent of maximum urease activity was calculated using Area Under the Curve (AUC) relative to untreated cell free extracts of P. mirabilis.

Assay [2] addresses T2, P. mirabilis urease (Proteus mirabilis, UniProt P17086).
T2 construct: it utilizes whole bacterial cells, rather than isolated enzyme preparations; endogenous in cells; host or cells: Proteus mirabilis HI4320, live whole cells
The assay is classed as cell-based. The note with it: for Compound 2 %I alone: kphos; for Combination index (CI): in combination with AHA. The method, then: To assess the synergistic effects of dampening metabolites when used in combination with each other, P. mirabilis urease activity was measured as described above. Between 4-6 different concentrations for each dampening metabolite were tested both alone and in combination (See Fig. 6a for example). […] To account for variability between experiments, all conditions tested were performed on a single 96-well plate with three technical replicates for each condition. To compare between biologic replicates, percent inhibition relative to untreated P. mirabilis was calculated for each condition using the average area under the curve over 120-180 minutes (so that the positive control activity curve saturated without any increase in the negative control curve).
Statistical analysis was conducted using a one sample T test of the combination index compared to a hypothetical value of 1 (additive effect). […] Therefore, combination indexes were calculated using a desired effect size less than 40% were indicated with an * in Fig. 6b and in Supplementary Data 5.

Assay [3] concerns the target T2, P. mirabilis urease. It is filed as cell-based. As to conditions: for effect on P. mirabilis urease activity (whole cell): potassium phosphate buffer, dose response.
Experimental: Urease activity was measured as described previously in triplicate with at least three biological replicates[21]. Briefly, bacteria were cultured for ~18 h in LB broth, concentrated to an OD600 of 4, washed once in saline, and diluted (1:10 for P. mirabilis and 1:50 for P. stuartii and M. morganii) into candidate dampening metabolites in potassium phosphate buffer or human urine pH7 and supplemented with 500 mM urea and 0.01% phenol red. Bacterial suspensions were distributed into a 96-well plate, incubated at 37 °C with double-orbital shaking in a Synergy H1 plate reader (BioTek), and absorbance (OD562) was measured every 60 seconds for 180 minutes. Isogenic urease mutants (Supplementary Data 1) served as negative controls for P. mirabilis and P. stuartii and a vehicle control served as a negative control for M. morganii.
For assay [4], the target named is T3, urease of P. mirabilis cell free extracts (Proteus mirabilis, UniProt P17086).
T3 construct: 20ul of cell-free extract were distributed into a 96-well plate in place of the whole cell bacterial suspensions; endogenous in cells; host or cells: Proteus mirabilis HI4320, urea-induced; freeze-thaw and sonication lysate, clarified supernatant
The assay is classed as biochemical. As to conditions: for type of urease inhibition: Michaelis-Menten parameters, Lineweaver-Burke plot. Here is the method:
For the kinetic analysis of the urease reaction in the presence of urease dampening metabolites, urease activity assays were repeated with the P. mirabilis cell free extracts. Six different inhibitor concentrations that gave linear rates of reaction over a period of 120 min were tested for their effects on urease activity in the presence of urea concentrations ranging from 0 to 500 mM. Simple linear regression was performed on the absorbance (OD562) over 120 minutes for each condition and plotted as Initial velocity (slope) vs urea concentration. These initial hyperbolic plots were converted to double-reciprocal Lineweaver-Burke plots, and the pattern of inhibition inferred from the point of intersection of the lines. Finally, the Ki for a particular compound was determined by plotting the Km/Vmax ratio (the slope of the Lineweaver-Burke plots) of each line as a function of the inhibitor concentration as described by ref. [49]. The X-intercept corresponded to –Ki.

Another assay concerns the target T4, Jack Bean Urease (JBU) (Canavalia ensiformis, UniProt P07374).
T4 construct: purchased Sigma-Aldrich
The assay is classed as biochemical. As to conditions: for JBU activity: 0.1 U JBU, 500 mM urea. The method, then:
To measure Jack Bean urease activity, the previously described assay was modified such that 0.1 U (1U liberates 1 µmol of ammonia from urea per minute) of JBU (Sigma-Aldrich urease from Canavalia ensiformis) were distributed into a 96-well plate in place of the bacterial suspensions. Acetohydroxamic acid (AHA), was used as a positive control and a vehicle control was used as a negative control. Percent of maximum urease activity was calculated using Area Under the Curve (AUC) relative to untreated bacteria of interest or untreated JBU. Urease activity measurement in MRSA was adapted from a recently published semi quantitative assay (See Supplementary materials for details)[48].
414 Supplementary Figure 13. Microbial metabolites dampen activity of purified Jack Bean
415 Urease (JBU). 0.1 U of JBU (1U liberates 1 µmol of ammonia from urea per minute) was
416 incubated at 37 °C with shaking in urease-dampening metabolites, 500mM urea, and phenol red.
417 A urea analogue, AHA, served as the positive control for inhibition of JBU. Absorbance
418 (OD562) was measured every 60 seconds for 90 minutes, and activity is expressed as percent of
419 maximum activity (% Max Activity) relative to untreated JBU. Graphs show mean±SD for 3
420 independent experiments with 3 technical replicates each. Data were analyzed by two tailed one
421 sample t-test to a hypothetical value of 100% activity. ***P<0.001, **P<0.002, *P<0.033.
(1 picture or pasted object on this page, not shown here)

The source of these data is PMC12583827, “Harnessing microbial-derived metabolites in the urinary tract to prevent infection induced catheter encrustation” (Nature Communications, 2025).

Molecules are shown by their SMILES. Where a name gives a salt, the structure may show the parent alone. Read-outs that look alike come from different tables or passages of the source.

T1 sequence (P17088 whole entry): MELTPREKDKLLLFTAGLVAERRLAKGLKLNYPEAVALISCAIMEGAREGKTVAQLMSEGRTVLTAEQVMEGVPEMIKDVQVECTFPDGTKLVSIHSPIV
T1 sequence (P17086 whole entry): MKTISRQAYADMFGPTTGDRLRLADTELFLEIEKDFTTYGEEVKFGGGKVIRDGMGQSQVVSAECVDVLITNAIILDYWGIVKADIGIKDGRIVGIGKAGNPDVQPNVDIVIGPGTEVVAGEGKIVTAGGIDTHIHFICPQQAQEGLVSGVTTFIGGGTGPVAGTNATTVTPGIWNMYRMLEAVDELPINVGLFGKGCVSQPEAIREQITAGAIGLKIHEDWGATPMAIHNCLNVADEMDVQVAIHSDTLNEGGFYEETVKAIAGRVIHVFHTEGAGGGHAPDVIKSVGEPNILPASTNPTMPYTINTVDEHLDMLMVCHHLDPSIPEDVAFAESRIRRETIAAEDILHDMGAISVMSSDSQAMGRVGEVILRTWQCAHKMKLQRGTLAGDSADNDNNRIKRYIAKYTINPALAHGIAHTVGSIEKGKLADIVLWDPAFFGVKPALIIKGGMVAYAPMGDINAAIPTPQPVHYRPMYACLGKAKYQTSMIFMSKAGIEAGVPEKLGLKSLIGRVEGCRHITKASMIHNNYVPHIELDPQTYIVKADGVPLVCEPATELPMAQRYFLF
T1 sequence (P17087 whole entry, further chain): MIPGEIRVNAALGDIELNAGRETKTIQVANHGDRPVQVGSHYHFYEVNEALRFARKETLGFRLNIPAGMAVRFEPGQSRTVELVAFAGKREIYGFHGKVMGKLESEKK
T3 sequence (P17086 whole entry): as the sequence (P17086 whole entry) above
T3 sequence (P17088 whole entry, further chain): as the sequence (P17088 whole entry) above
T3 sequence (P17087 whole entry, further chain): as the sequence (P17087 whole entry, further chain) above
T2 sequence (P17086 whole entry): as the sequence (P17086 whole entry) above
T2 sequence (P17088 whole entry, further chain): as the sequence (P17088 whole entry) above
T2 sequence (P17087 whole entry, further chain): as the sequence (P17087 whole entry, further chain) above
T4 sequence (P07374 whole entry, looked up): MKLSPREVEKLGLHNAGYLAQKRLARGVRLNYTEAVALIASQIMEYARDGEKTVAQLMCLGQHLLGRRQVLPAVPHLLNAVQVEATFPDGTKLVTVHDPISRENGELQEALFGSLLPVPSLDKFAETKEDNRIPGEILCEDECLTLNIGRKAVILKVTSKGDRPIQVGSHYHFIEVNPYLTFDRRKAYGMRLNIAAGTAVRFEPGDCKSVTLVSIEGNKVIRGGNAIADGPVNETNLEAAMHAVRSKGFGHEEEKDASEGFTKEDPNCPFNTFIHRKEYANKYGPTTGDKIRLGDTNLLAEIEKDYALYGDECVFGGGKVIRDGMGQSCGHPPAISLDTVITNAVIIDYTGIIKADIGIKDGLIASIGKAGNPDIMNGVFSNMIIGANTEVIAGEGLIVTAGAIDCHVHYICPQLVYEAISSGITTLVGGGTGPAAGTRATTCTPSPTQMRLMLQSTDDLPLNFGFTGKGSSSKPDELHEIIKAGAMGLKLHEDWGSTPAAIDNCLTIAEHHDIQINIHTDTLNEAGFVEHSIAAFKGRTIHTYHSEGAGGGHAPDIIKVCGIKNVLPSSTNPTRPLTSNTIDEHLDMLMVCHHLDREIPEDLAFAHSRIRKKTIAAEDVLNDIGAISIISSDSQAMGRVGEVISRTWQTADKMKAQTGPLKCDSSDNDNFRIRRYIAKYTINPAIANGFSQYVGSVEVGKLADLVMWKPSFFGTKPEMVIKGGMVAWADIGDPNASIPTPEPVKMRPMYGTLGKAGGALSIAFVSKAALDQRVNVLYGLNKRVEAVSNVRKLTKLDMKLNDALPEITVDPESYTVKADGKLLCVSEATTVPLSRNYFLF

As to `O.O=C(O)[C@H](O)Cc1cnc[nH]1` [D-imidazole lactate, D-imidazolelactic acid hydrate], the “urease activity of cell free P. mirabilis extracts” value in assay [1] is given as “at least partially inhibiting”. At P. mirabilis urease [2] (Compound 2 [] alone 0.0782, assay date 2024 08 07), the “Compound 2 %I alone” value was determined as 34.9%. Moreover, on P. mirabilis urease [2] (Compound 2 [] alone 0.156, assay date 2024 08 07), the “Compound 2 %I alone” value stood at 60.4%. The “Compound 2 %I alone” value on P. mirabilis urease [2] (Compound 2 [] alone 0.156, assay date 2024 08 09) stood at 49.2%. The “sub-inhibitory concentrations that still decrease P. mirabilis urease activity” value at P. mirabilis urease [3] (concentrations not inhibiting growth/viability) is given as at most 0.0391 mM. In addition, on P. mirabilis urease [3] (highest concentration tested 0.625mM), the Urease dampening activity entry is recorded as “Yes”. Further, the “effect on P. mirabilis urease activity (whole cell)” value at P. mirabilis urease [3] is given as “more potent activity profile compared to the L-imidazole lactate”. In addition, in assay [4], the “change of estimated Km on addition of metabolite” value (“change of estimated Km” for short) is recorded as “remain roughly unchanged”, the “change of estimated Vmax on addition of metabolite” value (shortened to “change of estimated Vmax”) is given as “decrease” and the “type of urease inhibition” value is “non-competitive inhibition”. For the same compound, at Jack Bean Urease (JBU), the JBU activity entry was “inhibited”.

As to `Cl.O=C(O)Cc1cnc[nH]1` [4-imidazole acetate, 2-(1H-Imidazol-5-yl)acetic acid hydrochloride], the “urease activity of cell free P. mirabilis extracts” value in assay [1] was “at least partially inhibiting”. Also, on P. mirabilis urease [2], the “concentrations required to achieve a significant combination index” value is under 50 mM and the “Combination index (CI)” value is listed as under 1. The Dampens urease activity entry at P. mirabilis urease [3] (biosynthetic pathway/functional group screen, highest concentration tested 20mM) was “Yes”. Besides, the “effect on P. mirabilis urease activity (whole cell)” value on P. mirabilis urease [3] is listed as “additional hits”. Further, in assay [4], the “change of estimated Km” value is “increase”, the “change of estimated Vmax” value is “decrease” and the “type of urease inhibition” value is given as “mixed inhibitors”. Moreover, at Jack Bean Urease (JBU), the JBU activity entry is reported as “inhibited”.

In the case of `NCCc1c[nH]cn1` [Histamine, histamine dihydrochloride], the “urease activity of cell free P. mirabilis extracts” value in assay [1] is “at least partially inhibiting”. Also, on P. mirabilis urease [2], the “concentrations required to achieve a significant combination index” value is under 50 mM and the “Combination index (CI)” value is listed as under 1. In addition, the “effect on P. mirabilis urease activity (whole cell)” value at P. mirabilis urease [3] is given as “reproducibly decreased”. Also, the Urease dampening activity entry at P. mirabilis urease [3] (screen of candidate metabolites, highest concentration tested 20mM, * Trending but not statistically significant, listed as Histamine HCl) was “Yes”. In addition, in assay [4], the “change of estimated Km” value is reported as “increase”, the “change of estimated Vmax” value is “decrease” and the “type of urease inhibition” value is recorded as “mixed inhibitors”. Moreover, the “concentrations at which JBU activity was significantly inhibited” value at Jack Bean Urease (JBU) was over 20 mM.
